Test results taken from patent US20140086938A1, “METHODS OF INHIBITING TUMOR GROWTH USING TTK ANTAGONISTS” (University Health Network, priority 2007, published 2014).

Columns and labels:
Experiment in all cases: SP600125 SRB growth inhibition
Assay type in all cases: cell-based
[1] = system: Hs578T; conditions: Homo sapiens, Hs-578T, 120 h, SRB assay 5 days after addition
Procedure: (§1) Compound SP600125 was purchased from Biomol International (PA, USA). 10 mM stock was prepared in 100% DMSO. Cells were seeded at various numbers, ranging from 1500 to 4000 per 80 μl in each well according to cell growth rate, into 96 well plates, 24 hours before compound overlay. The 10 mM SP600125 compounds stock in 100% DMSO was diluted with Opti-MEM I Reduced-Serum Medium (Invitrogen, Burlington, ON, Canada) to concentrations range from 50 nM to 250 μM. 20 μl from each concentration was overlay to cells to make the final concentrations range from 10 nM to 50 μM. The cells were cultured for 5 days before Sulforhodamine B assay. SRB assay is performed to assess cell survival. SRB is a water-soluble dye that binds to the basic amino acids of the cellular proteins. Thus, colorimetric measurement of the bound dye provides an estimate of the total protein mass that is related to the cell number. the cells are fixed in situ by gently aspirating off the culture media and adding 50 μl ice cold 10% Tri-chloroacetic Acid (TCA) per well and incubate at 4° C. for 30-60 min. The plates are washed with tap water five times and allowed to air dry for 5 min. Add 50 μl 0.4% (w/v) Sulforhodamine B solution in 1% (v/v) acetic acid per well and incubate for 30 min at RT for staining. Following staining, plates are washed four times with 1% acetic acid to remove any unbound dye and then allowed to air dry for 5 min. Stain is solubilized with 100 ul of 10 mM Tris pH 10.5 per well. Absorbance is read at 570 nm. The cell survival percentage in each compound concentration was calculated over the cell DMSO control, which was growing in the presence of 0.1% DMSO (0.5% in the case of 50 μM compounds). The GI50 were calculated using GraphPad PRISM software.
(§2) Cell viability was assessed using the SRB assay described herein, which was performed 5 days after the addition of SP600125 to the culture media. Prism software was used to calculate GI50 (concentration of the compound required to achieve 50% growth inhibition) (Table 3).

[2] = system: MDA-MB-453; conditions: Homo sapiens, 120 h, SRB assay 5 days after addition
Procedure: as §1, §2

[3] = system: MDA-MB-435; conditions: Homo sapiens, 120 h, SRB assay 5 days after addition
Procedure: as §1, §2

[4] = system: MDA-MB-231; conditions: Homo sapiens, 120 h, SRB assay 5 days after addition
Procedure: as §1, §2

[5] = system: T47D; conditions: Homo sapiens, 120 h, SRB assay 5 days after addition
Procedure: as §1, §2

[6] = system: 184A; conditions: Homo sapiens, 120 h, SRB assay 5 days after addition
Procedure: as §1, §2

[7] = system: SKBr-3; conditions: Homo sapiens, SK-BR-3, 120 h, SRB assay 5 days after addition
Procedure: as §1, §2

[8] = system: MDA-MB-468; conditions: Homo sapiens, 120 h, SRB assay 5 days after addition
Procedure: as §1, §2

[9] = system: HCC1419; conditions: Homo sapiens, 120 h, SRB assay 5 days after addition
Procedure: as §1, §2

[10] = system: MCF-7; conditions: Homo sapiens, MCF7, 120 h, SRB assay 5 days after addition
Procedure: as §1, §2

[11] = system: BT474; conditions: Homo sapiens, BT-474, 120 h, SRB assay 5 days after addition
Procedure: as §1, §2

[12] = system: MDA-MB-330; conditions: Homo sapiens, 120 h, SRB assay 5 days after addition
Procedure: as §1, §2

GI50 [2]: 2300 nM
GI50 [3]: 822 nM
GI50 [4]: 894 nM
GI50 [5]: 2520 nM
GI50 [7]: 812 nM
GI50 [8]: 483 nM
GI50 [9]: 10000 nM
GI50 [10]: 672 nM
GI50 [11]: 8580 nM
GI50 [12]: 7020 nM
SMILES: Oc1c2ccccc2c2c3c(cccc13)N=N2 [SP600125, anthra(1,9-cd)pyrazol-6(2H)-one 1,9-pyrazoloanthrone]
GI50 [1]: 1840 nM
GI50 [6]: 1590 nM
